Assay results taken from patent US12037324B2, “Biarylmethyl heterocycles” (Université de Montréal, priority 2016, dated 2024).

Key:
Format in all cases: cell-based
[1] = target: T1, AGTR1 (Homo sapiens, UniProt P30556); assay: DiscoveRx β-arrestin2 recruitment assay (enzyme complementation, Pathunter CHO-K1 AGTR1 β-arrestin cell line); conditions: DiscoveRx β-arrestin2 recruitment; for DiscoveRx β-arrestin2 Ymax (%): maximal response
T1 construct: host or cells: Pathunter CHO-K1 AGTR1 β-arrestin cell line (CHO-K1)
T1 sequence (P30556 1-359): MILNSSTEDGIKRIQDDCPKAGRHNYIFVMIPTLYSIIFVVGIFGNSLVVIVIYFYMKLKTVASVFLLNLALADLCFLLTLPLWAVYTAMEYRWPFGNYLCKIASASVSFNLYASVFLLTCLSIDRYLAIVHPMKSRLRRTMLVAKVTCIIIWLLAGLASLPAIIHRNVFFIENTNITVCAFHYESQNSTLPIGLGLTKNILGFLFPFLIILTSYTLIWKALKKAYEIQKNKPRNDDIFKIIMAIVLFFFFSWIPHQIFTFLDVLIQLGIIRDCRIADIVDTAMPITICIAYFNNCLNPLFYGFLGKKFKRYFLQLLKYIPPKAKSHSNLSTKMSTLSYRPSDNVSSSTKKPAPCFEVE
Method in brief: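 CHO-K1 cells expressing AGTR1 with β-arrestin2 enzyme-complementation reporter, plated 14-16 h ahead in 1% serum medium, then exposed to compounds for 90 min at 37° C. Chemiluminescence read after 1 h detection. EC50 (agonist) or IC50 (antagonist) from 4-parameter logistic fit; activity as percentage of All maximal effect.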

[2] = target: T1, AGTR1; assay: DiscoveRx IP1 accumulation assay (HTRF), agonist mode, Pathunter CHO-K1 AGTR1 β-arrestin cell line; conditions: for EC50: read-out: IP-1 EC50
Method in brief: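 Agonist mode in CHO-K1 AGTR1 β-arrestin cells plated 14-16 h before; compounds at varying concentrations for 90 min at 37° C, IP1 accumulation read by HTRF (D2-conjugate and anti-IP1 cryptate, 20 min room temperature). EC50 from 4-parameter logistic fit; activity given as percentage of maximal AII effect.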

[3] = target: T2, hAT1R (Homo sapiens, UniProt P30556); assay: BRET β-arrestin2 biosensor assay, higher receptor expression (hAT1R 5 ng/well), HEK293 cells; conditions: for EC50: High AT1R Expression
T2 sequence (P30556 1-359): T1 sequence (P30556 1-359)

CCc1nc2c(C)cc(C)nc2n1Cc1ccc(-c2cc(-c3ccc(F)cc3F)ccc2-c2nn[nH]n2)cc1 [Example 54]
EC50 [1]: 5.9 nM
DiscoveRx β-arrestin2 Ymax (%) [1]: 39.5%
IP-1 Ymax (%) [2]: 7.0%
EC50 [2]: 10.5 nM
BRET β-Arrestin2 High AT1R Expression Ymax (%) [3]: 89.7%
EC50 [3]: 5.7 nM

CCc1nc2c(C)cc(C)nc2n1Cc1ccc(-c2cc(Oc3cccc(OC(F)(F)F)c3)ccc2-c2nnn[nH]2)cc1 [Example 207]
EC50 [1]: 11.5 nM
DiscoveRx β-arrestin2 Ymax (%) [1]: 23.1%
IP-1 Ymax (%) [2]: 2.5%
EC50 [2]: 39.1 nM
BRET β-Arrestin2 High AT1R Expression Ymax (%) [3]: 74.8%
EC50 [3]: 22 nM

CCCCC1=NC2(CCCC2)C(=O)N1Cc1ccc(-c2cc(-c3cccc(F)c3F)ccc2-c2noc(=O)[nH]2)cc1 [Example 144, 3-(4″-((2-butyl-4-oxo-1,3-diazaspiro[4.4]non-1-en-3-yl)methyl)-2,3-difluoro-[1,1′:3′,1″-terphenyl]-4′-yl)-1,2,4-oxadiazol-5(4H)-one]
EC50 [1]: 12.3 nM
DiscoveRx β-arrestin2 Ymax (%) [1]: 33.3%
EC50 [2]: > 100000 nM
BRET β-Arrestin2 High AT1R Expression Ymax (%) [3]: 104.0%
EC50 [3]: 26.8 nM

CCc1nc2c(C)cc(C)nc2n1Cc1ccc(-c2cc(N3CCC(OC)CC3)ccc2-c2nn[nH]n2)cc1 [Example 87]
EC50 [1]: 42.5 nM
DiscoveRx β-arrestin2 Ymax (%) [1]: 16.7%
IP-1 Ymax (%) [2]: 7.2%
EC50 [2]: 42 nM
BRET β-Arrestin2 High AT1R Expression Ymax (%) [3]: 29.1%
EC50 [3]: 451 nM

CCc1nc2c(C)cc(C)nc2n1Cc1ccc(-c2cc(-c3ccc(OC(F)(F)F)cc3)ccc2-c2nn[nH]n2)cc1 [Example 6]
EC50 [1]: 14.1 nM
DiscoveRx β-arrestin2 Ymax (%) [1]: 27.0%
IP-1 Ymax (%) [2]: 4.9%
EC50 [2]: 14.6 nM
BRET β-Arrestin2 High AT1R Expression Ymax (%) [3]: 73.5%
EC50 [3]: 51 nM

CCc1nc2c(C)cc(C)nc2n1Cc1ccc(-c2cc(N3CCCC(C)(C)C3)ccc2-c2nn[nH]n2)cc1 [Example 98, 3-((5′-(3,3-dimethylpiperidin-1-yl)-2′-(2H-tetrazol-5-yl)-[1,1′-biphenyl]-4-yl)methyl)-2-ethyl-5,7-dimethyl-3H-imidazo[4,5-b]pyridine]
EC50 [1]: 18.8 nM
DiscoveRx β-arrestin2 Ymax (%) [1]: 72.9%
IP-1 Ymax (%) [2]: 6.6%
EC50 [2]: 26.7 nM
BRET β-Arrestin2 High AT1R Expression Ymax (%) [3]: 86.6%
EC50 [3]: 20.3 nM

CCCCC1=NC2(CCCC2)C(=O)N1Cc1ccc(-c2cc(-c3cccc(C(F)(F)F)n3)ccc2-c2nn[nH]n2)cc1 [Example 142]
EC50 [1]: 27.5 nM
DiscoveRx β-arrestin2 Ymax (%) [1]: 22.7%
IP-1 Ymax (%) [2]: 4.8%
EC50 [2]: 140 nM
BRET β-Arrestin2 High AT1R Expression Ymax (%) [3]: 82.9%
EC50 [3]: 59.2 nM

CCCCOC(=O)NS(=O)(=O)c1sc(-c2ccccc2)cc1-c1ccc(Cn2c(CC)nc3c(C)cc(C)nc32)cc1 [Example 49, Butyl (3-(4-((2-ethyl-5,7-dimethyl-3H-imidazo[4,5-b]pyridin-3-yl)methyl)phenyl)-5-phenylthiophen-2-yl)sulfonylcarbamate]
EC50 [1]: 10.9 nM
DiscoveRx β-arrestin2 Ymax (%) [1]: 47.6%
IP-1 Ymax (%) [2]: 4.2%
EC50 [2]: 21 nM
BRET β-Arrestin2 High AT1R Expression Ymax (%) [3]: 78.3%
EC50 [3]: 11.2 nM

CCCCC1=NC2(CCCC2)C(=O)N1Cc1ccc(-c2cc(N3CCC[C@H](C)C3)ccc2-c2nn[nH]n2)cc1 [Example 104]
EC50 [1]: 116 nM
DiscoveRx β-arrestin2 Ymax (%) [1]: 9.1%
EC50 [2]: > 100000 nM
BRET β-Arrestin2 High AT1R Expression Ymax (%) [3]: 23.4%
EC50 [3]: 346 nM

CCc1nc2c(C)cc(C)nc2n1Cc1ccc(-c2cc(N3CCc4ccccc43)ccc2-c2nn[nH]n2)cc1 [Example 96]
EC50 [1]: 12.6 nM
DiscoveRx β-arrestin2 Ymax (%) [1]: 33.0%
IP-1 Ymax (%) [2]: 5.3%
EC50 [2]: 28.7 nM
BRET β-Arrestin2 High AT1R Expression Ymax (%) [3]: 77.6%
EC50 [3]: 12.9 nM

CCc1nc2c(C)cc(C)nc2n1Cc1ccc(-c2cc(-c3cccc4cnccc34)ccc2-c2nn[nH]n2)cc1 [Example 16]
EC50 [1]: 59.8 nM
DiscoveRx β-arrestin2 Ymax (%) [1]: 17.1%
IP-1 Ymax (%) [2]: 3.6%
EC50 [2]: 55.3 nM
BRET β-Arrestin2 High AT1R Expression Ymax (%) [3]: 69.9%
EC50 [3]: 24.7 nM

CCCCC1=NC2(CCCC2)C(=O)N1Cc1ccc(-c2cc(-c3ccc(C(=O)NC)cc3)ccc2-c2nn[nH]n2)cc1 [Example 124]
EC50 [1]: 64.9 nM
DiscoveRx β-arrestin2 Ymax (%) [1]: 28.1%
EC50 [2]: > 100000 nM
BRET β-Arrestin2 High AT1R Expression Ymax (%) [3]: 32.6%
EC50 [3]: 138 nM

CCCCC1=NC2(CCCC2)C(=O)N1Cc1ccc(-c2cc(-c3cccnc3)ccc2-c2nn[nH]n2)cc1 [Example 125]
EC50 [1]: 45.3 nM
DiscoveRx β-arrestin2 Ymax (%) [1]: 16.6%
EC50 [2]: > 100000 nM
BRET β-Arrestin2 High AT1R Expression Ymax (%) [3]: 15.1%
EC50 [3]: 300 nM

CCCCOC(=O)NS(=O)(=O)c1sc(-c2ccccc2C)cc1-c1ccc(Cn2c(CC)nc3c(C)cc(C)nc32)cn1 [Example 39, Butyl (3-(5-((2-ethyl-5,7-dimethyl-3H-imidazo[4,5-b]pyridin-3-yl)methyl)pyridin-2-yl)-5-(o-tolyl)thiophen-2-yl)sulfonylcarbamate]
EC50 [1]: 33.1 nM
DiscoveRx β-arrestin2 Ymax (%) [1]: 23.3%
IP-1 Ymax (%) [2]: 4.8%
EC50 [2]: 126 nM
BRET β-Arrestin2 High AT1R Expression Ymax (%) [3]: 37.9%
EC50 [3]: 18.8 nM

CCCCOC(=O)NS(=O)(=O)c1sc(-c2ccccc2C)cc1-c1ccc(Cn2c(CC)nc3c(C)cc(C)nc32)cc1 [Example 40, Butyl (3-(4-((2-ethyl-5,7-dimethyl-3H-imidazo[4,5-b]pyridin-3-yl)methyl)phenyl)-5-(o-tolyl)thiophen-2-yl)sulfonylcarbamate]
EC50 [1]: 9.3 nM
DiscoveRx β-arrestin2 Ymax (%) [1]: 36.4%
IP-1 Ymax (%) [2]: 8.5%
EC50 [2]: 11.9 nM
BRET β-Arrestin2 High AT1R Expression Ymax (%) [3]: 84.6%
EC50 [3]: 14 nM

CCc1nc2c(C)cc(C)nc2n1Cc1ccc(-c2cc(-c3cncn3C)ccc2-c2nn[nH]n2)cc1 [Example 58]
EC50 [1]: 86.2 nM
DiscoveRx β-arrestin2 Ymax (%) [1]: 12.7%
IP-1 Ymax (%) [2]: 3.1%
EC50 [2]: 427 nM
BRET β-Arrestin2 High AT1R Expression Ymax (%) [3]: 46.2%
EC50 [3]: 190 nM

CCc1nc2c(C)cc(C)nc2n1Cc1ccc(-c2cc(OCc3ccccc3)ccc2-c2nnn[nH]2)cc1 [Example 212, 3-((5′-(Benzyloxy)-2′-(1H-tetrazol-5-yl)-[1,1′-biphenyl]-4-yl)methyl)-2-ethyl-5,7-dimethyl-3H-imidazo[4,5-b]pyridine]
EC50 [1]: 10.1 nM
DiscoveRx β-arrestin2 Ymax (%) [1]: 11.2%
IP-1 Ymax (%) [2]: 3.8%
EC50 [2]: 20.1 nM
BRET β-Arrestin2 High AT1R Expression Ymax (%) [3]: 29.2%
EC50 [3]: 10.6 nM

CCCCOC(=O)NS(=O)(=O)c1sc(-c2cccnc2OC)cc1-c1ccc(Cn2c(CC)nc3c(C)cc(C)nc32)cn1 [Example 48, Butyl (3-(5-((2-ethyl-5,7-dimethyl-3H-imidazo[4,5-b]pyridin-3-yl)methyl)pyridin-2-yl)-5-(2-methoxypyridin-3-yl)thiophen-2-yl)sulfonylcarbamate]
EC50 [1]: 106 nM
DiscoveRx β-arrestin2 Ymax (%) [1]: 20.6%
IP-1 Ymax (%) [2]: 10.0%
EC50 [2]: 357 nM
BRET β-Arrestin2 High AT1R Expression Ymax (%) [3]: 43.8%
EC50 [3]: 40.6 nM

CCCCC1=NC2(CCCC2)C(=O)N1Cc1ccc(-c2cc(-c3ccc(CO)cc3)ccc2-c2nn[nH]n2)cc1 [Example 126]
EC50 [1]: 5.3 nM
DiscoveRx β-arrestin2 Ymax (%) [1]: 17.3%
EC50 [2]: > 100000 nM
BRET β-Arrestin2 High AT1R Expression Ymax (%) [3]: 65.1%
EC50 [3]: 47.1 nM

CCCCC1=NC2(CCCC2)C(=O)N1Cc1ccc(-c2cc(N3CCCC(F)(F)C3)ccc2-c2noc(=O)[nH]2)cc1 [Example 121, 3-(4′-((2-butyl-4-oxo-1,3-diazaspiro[4.4]non-1-en-3-yl)methyl)-5-(3,3-difluoropiperidin-1-yl)-[1,1′-biphenyl]-2-yl)-1,2,4-oxadiazol-5(4H)-one]
EC50 [1]: 302 nM
DiscoveRx β-arrestin2 Ymax (%) [1]: 47.4%
IP-1 Ymax (%) [2]: 7.2%
EC50 [2]: 368 nM
BRET β-Arrestin2 High AT1R Expression Ymax (%) [3]: 98.0%
EC50 [3]: 431 nM

CCc1nc2c(C)cc(C)nc2n1Cc1ccc(-c2cc(C3CCCO3)ccc2-c2nn[nH]n2)cc1 (single isomer, unassigned) [Example 74, 2-ethyl-5,7-dimethyl-3-((5′-(tetrahydrofuran-2-yl)-2′-(2H-tetrazol-5-yl)-[1,1′-biphenyl]-4-yl)methyl)-3H-imidazo[4,5-b]pyridine]
EC50 [1]: 391 nM
DiscoveRx β-arrestin2 Ymax (%) [1]: 3.9%
EC50 [2]: > 100000 nM
BRET β-Arrestin2 High AT1R Expression Ymax (%) [3]: 3.2%
EC50 [3]: > 100000 nM

CCc1nc2c(C)cc(C)nc2n1Cc1ccc(-c2cc(C3=CCCCC3)ccc2-c2nn[nH]n2)cc1 [Example 70, 3-((6′-(2H-Tetrazol-5-yl)-2″,3″,4″,5″-tetrahydro-[1,1′:3′,1″-terphenyl]-4-yl)methyl)-2-ethyl-5,7-dimethyl-3H-imidazo[4,5-b]pyridine]
EC50 [1]: 13.1 nM
DiscoveRx β-arrestin2 Ymax (%) [1]: 58.7%
EC50 [2]: > 50000 nM
BRET β-Arrestin2 High AT1R Expression Ymax (%) [3]: 94.7%
EC50 [3]: 7.1 nM
